Measured values taken from ChEMBL document CHEMBL1201862, “PubChem BioAssay data set” (2004).
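Values below derive from 48-hour exposures of cells grown in 96-well plates, with endpoints linearly interpolated between the two concentrations bracketing the appropriate inhibition level. At the GI50, growth is halved.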 The source made the active and inactive calls. No stated cut-off is given here; in the data, active = GI50 up to about 1.1 µM and inactive = higher.

Legend:
Assay in all cases: growth of human tumour cells (NCI), 48 h
KM-20L2 = test system: KM-20L2
M19-MEL = test system: M19-MEL
LXFL 529 = test system: LXFL 529
DLD-1 = test system: DLD-1
XF498 = test system: XF498
HL-60 = test system: HL-60
HCT-116 = test system: HCT-116
SF-295 = test system: SF-295
SNB-78 = test system: SNB-78
A549 = test system: A549
DMS-114 = test system: DMS-114
NCI-H460 = test system: NCI-H460
RXF 393 = test system: RXF 393
EKVX = test system: EKVX
OVCAR-3 = test system: OVCAR-3
M14 = test system: M14
SNB-19 = test system: SNB-19
Malme-3M = test system: Malme-3M
KM12 = test system: KM12
OVCAR-8 = test system: OVCAR-8
SK-MEL-2 = test system: SK-MEL-2
MOLT-4 = test system: MOLT-4
SNB-75 = test system: SNB-75
HCC 2998 = test system: HCC 2998
HCT-15 = test system: HCT-15
HOP-18 = test system: HOP-18
CAKI-1 = test system: CAKI-1
SF-268 = test system: SF-268
HOP-92 = test system: HOP-92
HT-29 = test system: HT-29
UO-31 = test system: UO-31
786-0 = test system: 786-0
TK-10 = test system: TK-10
NCI-H23 = test system: NCI-H23
CCRF-CEM = test system: CCRF-CEM
SF-539 = test system: SF-539
HOP-62 = test system: HOP-62
SK-OV-3 = test system: SK-OV-3
OVCAR-4 = test system: OVCAR-4
COLO 205 = test system: COLO 205
SN12C = test system: SN12C
NCI-H522 = test system: NCI-H522
SK-MEL-28 = test system: SK-MEL-28
IGROV-1 = test system: IGROV-1
SW-620 = test system: SW-620
ACHN = test system: ACHN
UACC-257 = test system: UACC-257
UACC-62 = test system: UACC-62
U-251 = test system: U-251
A498 = test system: A498
SR = test system: SR
NCI-H226 = test system: NCI-H226
K562 = test system: K562
MCF7 = test system: MCF7
DU-145 = test system: DU-145
SK-MEL-5 = test system: SK-MEL-5
DMS-273 = test system: DMS-273
RPMI-8226 = test system: RPMI-8226
BT-549 = test system: BT-549
MDA-MB-435 = test system: MDA-MB-435
LOX IMVI = test system: LOX IMVI
PC-3 = test system: PC-3
T47D = test system: T47D
OVCAR-5 = test system: OVCAR-5
NCI/ADR-RES = test system: NCI/ADR-RES
MDA-MB-231 = test system: MDA-MB-231
Hs-578T = test system: Hs-578T
MDA-N = test system: MDA-N

O=C(Cc1nc2ccccc2o1)C(=O)Nc1cccc(Cl)c1
GI50 (KM-20L2): > 100 µM (inactive)
GI50 (M19-MEL): > 100 µM (inactive)
GI50 (LXFL 529): > 100 µM (inactive)
GI50 (DLD-1): > 100 µM (inactive)
GI50 (XF498): > 100 µM (inactive)
GI50 (HL-60): > 100 µM (inactive)
GI50 (HCT-116): > 100 µM (inactive)
GI50 (SF-295): > 100 µM (inactive)
GI50 (SNB-78): > 100 µM (inactive)
GI50 (A549): > 100 µM (inactive)
GI50 (DMS-114): > 100 µM (inactive)
GI50 (NCI-H460): > 100 µM (inactive)
GI50 (RXF 393): > 100 µM (inactive)
GI50 (EKVX): > 100 µM (inactive)
GI50 (OVCAR-3): > 100 µM (inactive)
GI50 (M14): > 100 µM (inactive)
GI50 (SNB-19): > 100 µM (inactive)
GI50 (Malme-3M): > 100 µM (inactive)
GI50 (KM12): > 100 µM (inactive)
GI50 (OVCAR-8): > 100 µM (inactive)
GI50 (SK-MEL-2): > 100 µM (inactive)
GI50 (MOLT-4): > 100 µM (inactive)
GI50 (SNB-75): > 100 µM (inactive)
GI50 (HCC 2998): > 100 µM (inactive)
GI50 (HCT-15): > 100 µM
GI50 (HOP-18): > 100 µM (inactive)
GI50 (CAKI-1): > 100 µM (inactive)
GI50 (SF-268): > 100 µM (inactive)
GI50 (HOP-92): > 100 µM (inactive)
GI50 (HT-29): > 100 µM (inactive)
GI50 (UO-31): > 100 µM (inactive)
GI50 (786-0): > 100 µM (inactive)
GI50 (TK-10): > 100 µM (inactive)
GI50 (NCI-H23): > 100 µM (inactive)
GI50 (CCRF-CEM): > 100 µM (inactive)
GI50 (SF-539): > 100 µM (inactive)
GI50 (HOP-62): > 100 µM (inactive)
GI50 (SK-OV-3): > 100 µM (inactive)
GI50 (OVCAR-4): > 100 µM (inactive)
GI50 (COLO 205): > 100 µM (inactive)
GI50 (SN12C): > 100 µM (inactive)
GI50 (NCI-H522): > 100 µM (inactive)
GI50 (SK-MEL-28): > 100 µM (inactive)
GI50 (IGROV-1): > 100 µM (inactive)
GI50 (SW-620): > 100 µM (inactive)
GI50 (ACHN): > 100 µM (inactive)
GI50 (UACC-257): > 100 µM (inactive)
GI50 (UACC-62): > 100 µM (inactive)
GI50 (U-251): > 100 µM (inactive)
GI50 (A498): > 100 µM (inactive)
GI50 (SR): > 100 µM (inactive)
GI50 (NCI-H226): > 100 µM (inactive)
GI50 (K562): > 100 µM (inactive)

CCCCCCCCCCCC[C@@H](O)[C@H]1CC[C@H]([C@H](O)CCCC[C@H](O)CCCCC[C@@H](O)CC2=C[C@H](C)OC2=O)O1
GI50 (MCF7): 1.64 µM (inactive)
GI50 (KM-20L2): 2.19 µM (inactive)
GI50 (M19-MEL): 1.69 µM (inactive)
GI50 (LXFL 529): 1.84 µM (inactive)
GI50 (DU-145): 6.4 µM (inactive)
GI50 (DLD-1): 2.67 µM (inactive)
GI50 (SK-MEL-5): 0.0143 µM (active)
GI50 (HL-60): 0.103 µM (active)
GI50 (HCT-116): 0.135 µM (active)
GI50 (DMS-273): 1.57 µM (inactive)
GI50 (RPMI-8226): 0.362 µM (active)
GI50 (BT-549): 10 µM (inactive)
GI50 (SF-295): < 0.0486 µM (active)
GI50 (SNB-78): 3.95 µM (inactive)
GI50 (A549): 1.29 µM (inactive)
GI50 (DMS-114): < 0.01 µM (active)
GI50 (MDA-MB-435): 1.98 µM (inactive)
GI50 (NCI-H460): 2.07 µM (inactive)
GI50 (LOX IMVI): 1.19 µM (inactive)
GI50 (RXF 393): 3.55 µM (inactive)
GI50 (EKVX): 0.562 µM (active)
GI50 (PC-3): 1.53 µM (inactive)
GI50 (OVCAR-3): 0.569 µM (active)
GI50 (M14): 2.45 µM (inactive)
GI50 (SNB-19): 2.83 µM (inactive)
GI50 (Malme-3M): 2.09 µM (inactive)
GI50 (KM12): 3.35 µM (inactive)
GI50 (OVCAR-8): 3.74 µM (inactive)
GI50 (T47D): 2.39 µM (inactive)
GI50 (SK-MEL-2): 0.867 µM (active)
GI50 (OVCAR-5): 1.18 µM (inactive)
GI50 (MOLT-4): 0.363 µM (active)
GI50 (SNB-75): 2.92 µM (inactive)
GI50 (HCC 2998): 3.43 µM (inactive)
GI50 (HCT-15): 2.39 µM
GI50 (HOP-18): 3.23 µM (inactive)
GI50 (CAKI-1): 2.64 µM (inactive)
GI50 (SF-268): 1.86 µM (inactive)
GI50 (HOP-92): 2.34 µM (inactive)
GI50 (HT-29): 2.1 µM (inactive)
GI50 (UO-31): 1.05 µM (active)
GI50 (786-0): 2.82 µM (inactive)
GI50 (TK-10): 3.07 µM (inactive)
GI50 (NCI-H23): 0.034 µM (active)
GI50 (CCRF-CEM): 1.18 µM (inactive)
GI50 (SF-539): 2.97 µM (inactive)
GI50 (HOP-62): 2.59 µM (inactive)
GI50 (SK-OV-3): 4.03 µM (inactive)
GI50 (OVCAR-4): 0.931 µM (active)
GI50 (COLO 205): 1.75 µM (inactive)
GI50 (SN12C): 3.78 µM (inactive)
GI50 (NCI/ADR-RES): 1.25 µM (inactive)
GI50 (NCI-H522): 0.565 µM (active)
GI50 (SK-MEL-28): 2.8 µM (inactive)
GI50 (IGROV-1): 0.61 µM (active)
GI50 (SW-620): 3.22 µM (inactive)
GI50 (ACHN): 0.116 µM (active)
GI50 (UACC-257): 0.0168 µM (active)
GI50 (UACC-62): 1.87 µM (inactive)
GI50 (U-251): 2.78 µM (inactive)
GI50 (MDA-MB-231): 3.31 µM (inactive)
GI50 (Hs-578T): 3.17 µM (inactive)
GI50 (A498): 3.55 µM (inactive)
GI50 (SR): 2.54 µM (inactive)
GI50 (NCI-H226): 3.11 µM (inactive)
GI50 (MDA-N): 2.08 µM (inactive)
GI50 (K562): 0.213 µM (active)
